{"source": "patent US12275734B1", "about": "“Pleuromutilin onium salt derivative containing a 3H-imidazo[4,5-c]pyridine side chain, and a preparation method and application thereof” (SHAANXI UNIVERSITY OF SCIENCE AND TECHNOLOGY, priority 2024, dated 2025)", "experiment_in_all_cases": "MIC, broth microdilution", "format_in_all_cases": "cell-based", "key": {"[1]": {"system": "A. baumannii ATCC 19606", "conditions": "Acinetobacter baumannii, ATCC19606; A. baumannii ATCC 19606; read-out: Minimum inhibitory concentration A.b.^f", "description": "(§1) The minimum inhibitory concentration of 3H-imidazo[4,5-C]pyridine pleuromutilin onium salt derivatives against the tested pathogenic microorganisms were determined by broth microdilution method, with valnemulin and retapamulin as positive controls.\n(§2) The experimental strains included resistant Gram-positive bacteria: Methicillin-resistant S. aureus ATCC 33591; Methicillin-resistant S. aureus ATCC 43300; S. aureus ATCC 29213; Methicillin-resistant S. epidermidis ATCC 51625. Resistant Gram-negative bacteria: A. baumannii ATCC 19606; S. enterica ATCC14028; E. coli ATCC 25922; E. coli CMCC 44103. 9 clinically isolated resistant strains: MRSA-171; MRSA-575; MRSA-206; MRSA-222; MRSA-596; VRE-80; MDR-PA-126; MDR-KP-893; CR-AB-882.\n(§3) (1) Preparation of MHB medium: Weigh 18.0 g of MHB medium pre-made powder, add it to 1 L of distilled water, heat and boil until completely dissolved, divide it into conical bottles, sterilize it by high pressure at 121° C. for 15 minutes, and set aside.\n(§4) (2) Cultivate the experimental strain to the logarithmic growth phase: Under sterile conditions, inoculate the experimental strain into fresh MHB medium and culture it in a 37° C. constant temperature and humidity incubator for 16-24 hours. Adjust the bacterial solution concentration to 1.5×10^8 CFU/mL and then dilute it 200 times for later use.\n(§5) (3) Preparation of storage solution: Weigh the sample to be tested, dissolve it in 1% DMSO solution, and prepare a storage solution with a concentration of 2560 μg/mL; weigh the positive control, dissolve it in sterile distilled water, and prepare a storage solution with a concentration of 2560 μg/mL.\n(§6) (4) Preparation of bacterial suspension: Under sterile conditions, the experimental strain cultured to the logarithmic growth phase was calibrated to a 0.5 McFarland unit turbidity standard using MHB medium and then diluted at a ratio of 1:200 to prepare a bacterial suspension with a concentration of 5×10^5 CFU/mL for later use.\n(§7) (5) Determination of MIC by two-fold microdilution method: Take a sterile 96-well plate, add 10 μL of the test compound at a concentration of 2560 μg/mL, and perform serial dilutions by the two-fold dilution method. At the same time, set up a negative control group without drug. Then add 190 μL of diluted bacterial solution to each well, so that the final bacterial solution concentration in each well is 5×10^5 CFU/mL, and incubate in a 37° C. constant temperature and humidity chamber for 24 hours."}, "[2]": {"system": "E. coli ATCC 25922", "conditions": "Escherichia coli, ATCC25922; E. coli ATCC 25922; read-out: Minimum inhibitory concentration E.c.^h", "description": "as §1, §2, §3, §4, §5, §6, §7"}, "[3]": {"system": "E.coli CMCC 44103", "conditions": "Escherichia coli, CMCC44103; E.coli CMCC 44103; read-out: Minimum inhibitory concentration E.c.^i", "description": "as §1, §2, §3, §4, §5, §6, §7"}, "[4]": {"system": "Methicillin-resistant S. aureus ATCC 33591", "conditions": "Staphylococcus aureus, ATCC 33591 / MRSA; Methicillin-resistant S. aureus ATCC 33591; read-out: Minimum inhibitory concentration MRSA^b", "description": "as §1, §2, §3, §4, §5, §6, §7"}, "[5]": {"system": "Methicillin-resistant S. aureus ATCC 43300", "conditions": "Staphylococcus aureus, ATCC 43300 / MRSA; Methicillin-resistant S. aureus ATCC 43300; read-out: Minimum inhibitory concentration MRSA^c", "description": "as §1, §2, §3, §4, §5, §6, §7"}, "[6]": {"system": "Methicillin-resistant S. epidermidis ATCC 51625", "conditions": "Staphylococcus epidermidis, ATCC 51625 / MRSE; Methicillin-resistant S. epidermidis ATCC 51625; read-out: Minimum inhibitory concentration MRSE^e", "description": "as §1, §2, §3, §4, §5, §6, §7"}, "[7]": {"system": "S. aureus ATCC 29213", "conditions": "Staphylococcus aureus, ATCC29213; S. aureus ATCC 29213; read-out: Minimum inhibitory concentration S.a.^d", "description": "as §1, §2, §3, §4, §5, §6, §7"}, "[8]": {"system": "S. enterica ATCC14028", "conditions": "Salmonella enterica; S. enterica ATCC14028; read-out: Minimum inhibitory concentration S.e.^g", "description": "as §1, §2, §3, §4, §5, §6, §7"}}, "data": [{"smiles": "C=C[C@]1(C)C[C@@H](OC(=O)CSc2nc3cc[n+](Cc4ccc(Br)cc4)cc3[nH]2)[C@]2(C)[C@H](C)CC[C@]3(CCC(=O)[C@H]32)[C@@H](C)[C@@H]1O", "note": "[Compound a, 5-(4-bromobenzyl)-2-((2-(((3aR,4R,5R,7S,8S,9R,9aS,12R)-8-hydroxy-4,7,9,12-tetramethyl-3-oxo-7-vinyldecahydro-4,9a-propancyclopenta[8]cyclo-5-yl)oxy)-2-oxoethyl)thio)-3H-imidazo[4,5-c]pyridin-5-ium]", "values": [{"measurement": "MIC", "setting": "[1]", "value": 32, "unit": "µg/mL"}, {"measurement": "MIC", "setting": "[2]", "value": 16, "unit": "µg/mL"}, {"measurement": "MIC", "setting": "[3]", "value": 8, "unit": "µg/mL"}, {"measurement": "MIC", "setting": "[4]", "value": 8, "unit": "µg/mL"}, {"measurement": "MIC", "setting": "[5]", "value": 4, "unit": "µg/mL"}, {"measurement": "MIC", "setting": "[6]", "value": 16, "unit": "µg/mL"}, {"measurement": "MIC", "setting": "[7]", "value": 8, "unit": "µg/mL"}, {"measurement": "MIC", "setting": "[8]", "value": 4, "unit": "µg/mL"}]}, {"smiles": "C=C[C@]1(C)C[C@@H](OC(=O)CSc2nc3cc[n+](Cc4ccc(C(F)(F)F)cc4)cc3[nH]2)[C@]2(C)[C@H](C)CC[C@]3(CCC(=O)[C@H]32)[C@@H](C)[C@@H]1O", "note": "[Compound b, 5-(4-trifluoromethyl)-2-((2-(((3aR,4R,5R,7S,8S,9R,9aS,12R)-8-hydroxy-4,7,9,12-tetramethyl-3-oxo-7-vinyldecahydro-4,9a-propancyclopenta[8]cyclo-5-yl)oxy)-2-oxoethyl)thio)-3H-imidazo[4,5-C]pyridine-5-ium]", "values": [{"measurement": "MIC", "setting": "[1]", "value": 64, "unit": "µg/mL"}, {"measurement": "MIC", "setting": "[2]", "value": 32, "unit": "µg/mL"}, {"measurement": "MIC", "setting": "[3]", "value": 16, "unit": "µg/mL"}, {"measurement": "MIC", "setting": "[4]", "value": 32, "unit": "µg/mL"}, {"measurement": "MIC", "setting": "[5]", "value": 64, "unit": "µg/mL"}, {"measurement": "MIC", "setting": "[6]", "value": 32, "unit": "µg/mL"}, {"measurement": "MIC", "setting": "[7]", "value": 64, "unit": "µg/mL"}, {"measurement": "MIC", "setting": "[8]", "value": 16, "unit": "µg/mL"}]}, {"smiles": "C=C[C@]1(C)C[C@@H](OC(=O)CSc2nc3cc[n+](Cc4ccc(F)cc4)cc3[nH]2)[C@]2(C)[C@H](C)CC[C@]3(CCC(=O)[C@H]32)[C@@H](C)[C@@H]1O", "note": "[Compound c, 5-(4-fluorobenzyl)-2-((2-(((3aR,4R,5R,7S,8S,9R,9aS,12R)-8-hydroxy-4,7,9,12-tetramethyl-3-oxo-7-vinyldecahydro-4,9a-propancyclopenta[8]cyclo-5-yl)oxy)-2-oxoethyl)thio)-3H-imidazo[4,5-C]pyridine-5-ium]", "values": [{"measurement": "MIC", "setting": "[1]", "value": 32, "unit": "µg/mL"}, {"measurement": "MIC", "setting": "[2]", "value": 8, "unit": "µg/mL"}, {"measurement": "MIC", "setting": "[3]", "value": 8, "unit": "µg/mL"}, {"measurement": "MIC", "setting": "[4]", "value": 8, "unit": "µg/mL"}, {"measurement": "MIC", "setting": "[5]", "value": 16, "unit": "µg/mL"}, {"measurement": "MIC", "setting": "[6]", "value": 16, "unit": "µg/mL"}, {"measurement": "MIC", "setting": "[7]", "value": 4, "unit": "µg/mL"}, {"measurement": "MIC", "setting": "[8]", "value": 16, "unit": "µg/mL"}]}, {"smiles": "C=C[C@]1(C)C[C@@H](OC(=O)CSc2nc3cc[n+](Cc4ccc(OC)cc4)cc3[nH]2)[C@]2(C)[C@H](C)CC[C@]3(CCC(=O)[C@H]32)[C@@H](C)[C@@H]1O", "note": "[Compound d, 5-(4-methoxybenzyl)-2-((2-(((3aR,4R,5R,7S,8S,9R,9aS,12R)-8-hydroxy-4,7,9,12-tetramethyl-3-oxo-7-vinyldecahydro-4,9a-propancyclopenta[8]cyclo-5-yl)oxy)-2-oxoethyl)thio)-3H-imidazo[4,5-C]pyridine-5-ium]", "values": [{"measurement": "MIC", "setting": "[1]", "value": 16, "unit": "µg/mL"}, {"measurement": "MIC", "setting": "[2]", "value": 4, "unit": "µg/mL"}, {"measurement": "MIC", "setting": "[3]", "value": 32, "unit": "µg/mL"}, {"measurement": "MIC", "setting": "[4]", "value": 16, "unit": "µg/mL"}, {"measurement": "MIC", "setting": "[5]", "value": 8, "unit": "µg/mL"}, {"measurement": "MIC", "setting": "[6]", "value": 16, "unit": "µg/mL"}, {"measurement": "MIC", "setting": "[7]", "value": 32, "unit": "µg/mL"}, {"measurement": "MIC", "setting": "[8]", "value": 16, "unit": "µg/mL"}]}, {"smiles": "C=C[C@]1(C)C[C@@H](OC(=O)CSc2nc3cc[n+](Cc4ccc(Cl)cc4)cc3[nH]2)[C@]2(C)[C@H](C)CC[C@]3(CCC(=O)[C@H]32)[C@@H](C)[C@@H]1O", "note": "[Compound e, 5-(4-chlorobenzyl)-2-((2-(((3aR,4R,5R,7S,8S,9R,9aS,12R)-8-hydroxy-4,7,9,12-tetramethyl-3-oxo-7-vinyldecahydro-4,9a-propancyclopenta[8]cyclo-5-yl)oxy)-2-oxoethyl)thio)-3H-imidazo[4,5-C]pyridine-5-ium]", "values": [{"measurement": "MIC", "setting": "[1]", "value": 16, "unit": "µg/mL"}, {"measurement": "MIC", "setting": "[2]", "value": 32, "unit": "µg/mL"}, {"measurement": "MIC", "setting": "[3]", "value": 16, "unit": "µg/mL"}, {"measurement": "MIC", "setting": "[4]", "value": 32, "unit": "µg/mL"}, {"measurement": "MIC", "setting": "[5]", "value": 16, "unit": "µg/mL"}, {"measurement": "MIC", "setting": "[6]", "value": 16, "unit": "µg/mL"}, {"measurement": "MIC", "setting": "[7]", "value": 8, "unit": "µg/mL"}, {"measurement": "MIC", "setting": "[8]", "value": 32, "unit": "µg/mL"}]}]}
